Patent US20100227853A1, “INHIBITORS OF CYCLIC AMP PHOSPHODIESTERASES” (Trustees of Boston College, priority 2008, published 2010)
Entries after “also recorded” stand apart in the source; their conditions may differ. One block for each compound: values may come before it.

Legend:
[1] = target: T1, PDE4A5 (Rattus norvegicus, UniProt P54748); assay: 5FOA growth assay in fission yeast strain expressing PDE4A5; type: cell-based; conditions: for Composite Z score, PDE4A5: high throughput 5FOA growth screen
T1 construct: targets used in the assays are full-length proteins (as opposed to simply the catalytic domain); expressed in transfected cells; host or cells: Schizosaccharomyces pombe, PDE gene integrated in place of cgs2
T1 sequence (P54748 1-844): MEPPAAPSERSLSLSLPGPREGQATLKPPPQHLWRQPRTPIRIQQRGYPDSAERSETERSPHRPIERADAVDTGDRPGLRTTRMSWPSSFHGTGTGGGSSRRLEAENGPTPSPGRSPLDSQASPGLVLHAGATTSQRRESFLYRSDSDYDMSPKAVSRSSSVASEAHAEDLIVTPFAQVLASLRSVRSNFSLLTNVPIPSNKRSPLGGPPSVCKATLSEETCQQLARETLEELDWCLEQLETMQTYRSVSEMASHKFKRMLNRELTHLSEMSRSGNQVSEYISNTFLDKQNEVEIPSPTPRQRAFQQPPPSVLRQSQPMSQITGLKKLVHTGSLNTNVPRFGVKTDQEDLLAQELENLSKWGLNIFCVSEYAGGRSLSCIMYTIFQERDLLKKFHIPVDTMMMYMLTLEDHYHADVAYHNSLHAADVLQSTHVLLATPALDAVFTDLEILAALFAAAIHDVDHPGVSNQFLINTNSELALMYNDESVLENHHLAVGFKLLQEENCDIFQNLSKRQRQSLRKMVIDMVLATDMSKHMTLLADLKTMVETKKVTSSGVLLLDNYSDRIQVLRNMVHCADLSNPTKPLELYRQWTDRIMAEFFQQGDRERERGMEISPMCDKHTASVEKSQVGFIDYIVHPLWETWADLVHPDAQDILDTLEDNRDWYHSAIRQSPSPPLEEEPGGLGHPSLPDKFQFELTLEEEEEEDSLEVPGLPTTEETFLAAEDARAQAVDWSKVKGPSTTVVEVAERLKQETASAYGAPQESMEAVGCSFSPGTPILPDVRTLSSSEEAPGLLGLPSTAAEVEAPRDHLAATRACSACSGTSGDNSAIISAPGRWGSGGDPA
Description: High throughput drug screens were carried out at the Broad Institute's Chemical Biology Program screening facility (Broad Institute, Cambridge, Mass.). Depending upon the strain, cultures were pregrown to exponential phase in EMM complete medium containing from 0.5 to 2.5 mM cAMP to repress fbp1-ura4 transcription. Cells were collected by centrifugation, resuspended in 5FOA medium, and 25 μl were transferred to 384-well microtiter dishes (untreated, with flat clear bottoms) that had been pre-filled with 25 μl 5FOA medium and pre-pinned with 100 nl of compounds (stock solutions were generally 10 mM) from a subset of the Prestwick Bioactive and the Microsource Spectrum compound libraries. Starting cell concentrations ranged from 0.5×10^5 to 4×10^5 cells/ml depending on the screening strain. […] Other positive control dishes contained 5 mM cAMP in the 5FOA medium. Cultures were grown for 48 hours at 30° C., sealed in an airtight container with moist paper towels to prevent evaporation. Optical densities (OD600) of cultures were measured using a microplate reader. Bioinformatic analysis of the results to determine composite Z scores was performed as previously described^30, 31.
(§1) Cells were pregrown in EMM medium [MP Biomedicals (Solon, Ohio), 3% glucose, filter-sterilized to avoid carmelization, which would introduce variability into the optical density of the medium] containing from 0 mM to 2.5 mM cAMP (or either 0.5 mM or 1.0 mM cGMP). This was to repress expression of the fbp1-ura4 reporter prior to exposure of cells to 5FOA medium. Cells were grown at 30° C. to exponential phase (approximately 10^7 cells/ml). Cells were collected by centrifugation and resuspended in 5FOA medium, and 25 μl were transferred to 384-well microtiter dishes (untreated, with flat clear bottoms) that had been pre-filled with 25 μl 5FOA medium and pre-pinned with 100 nl of compounds (stock solutions were generally 10 mM). Starting cell concentrations ranged from 0.5×10^5 to 4×10^5 cells/ml depending on the screening strain. […] Other positive control dishes contained 5 mM cAMP in the 5FOA medium for PDEs that lack appropriate control compounds. Cultures were grown for 48 hours at 30° C., sealed in an airtight container with moist paper towels to prevent evaporation. Optical densities (OD600) of cultures were measured using a microplate reader. Bioinformatic analysis of the results to determine composite Z scores was performed as previously described (1, 3).

[2] = tested on: PDE4A, PDE4B, PDE4D, PDE7A, PDE7B, PDE8A, PDE3A; assay: Summary of PDE inhibitor profile; parameters: key to PDE inhibitor profile (Table 17): (1): Strong PDE4A, PDE4B inhibitor; (2): Strong PDE4A inhibitor; (3): Strong PDE4B, moderate PDE4A inhibitor; (4): Moderate PDE4A, PDE4B inhibitor; (5): Moderate PDE4B inhibitor; key to inhibitor class, Table 15: (1): Strong PDE4A5 inhibitor; (2): Strong PDE4A, 4B inhibitor; Moderate PDE4D inhibitor; (3): Strong PDE4A. 4B inhibitor; (4): Strong PDE4A, 4B, PDE7A inhibitor: Weak PDE4D inhibitor; key to inhibitor class, Table 16: (1): Weak PDE7A inhibitor; (2): Strong PDE7A inhibitor; (3): Lillte/no activity under conditions used; (4): Weak PDE4A inhibitor; conditions: for PDE inhibitor profile (Table 17): overall classification, Table 17 footnotes
[3] = target: PDE7A (Homo sapiens, UniProt Q13946); assay: 5FOA growth assay in fission yeast strain expressing PDE7A; type: cell-based; parameters: targets used in the assays are full-length proteins (as opposed to simply the catalytic domain); expressed in transfected cells; host or cells: Schizosaccharomyces pombe, PDE gene integrated in place of cgs2; conditions: for Composite Z score, PDE7A: high throughput 5FOA growth screen; for EC50: OD600 0.6, read-out: ED50 for 5FOA growth assays, PDE7A
Procedure, shortened: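 Fission yeast carrying an fbp1-ura4 reporter were pregrown to exponential phase at 30 °C in EMM with 0–2.5 mM cAMP (or 0.5/1.0 mM cGMP), then moved into 5FOA medium with 100 nl pinned compound (10 mM stocks). Growth was read as OD600 after 48 h at 30 °C and scored as composite Z scores.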

[4] = target: T2, PDE4D3 (Homo sapiens, UniProt Q08499); assay: 5FOA growth assay in fission yeast strain expressing PDE4D3; type: cell-based; conditions: for EC50: OD600 0.6, read-out: ED50 for 5FOA growth assays, PDE4D3
T2 construct: targets used in the assays are full-length proteins (as opposed to simply the catalytic domain); expressed in transfected cells; host or cells: Schizosaccharomyces pombe, PDE gene integrated in place of cgs2
Description: as §1, with “Cells were collected by centrifugation and resuspended in 5FOA medium, and 25 μl were transferred to 384-well microtiter dishes (untreated, with flat clear bottoms) that had been pre-filled with 25 μl 5FOA medium and pre-pinned with 100 nl of compounds (stock solutions were generally 10 mM).” left out

T2 sequence (Q08499 1-673 isoform Q08499-2): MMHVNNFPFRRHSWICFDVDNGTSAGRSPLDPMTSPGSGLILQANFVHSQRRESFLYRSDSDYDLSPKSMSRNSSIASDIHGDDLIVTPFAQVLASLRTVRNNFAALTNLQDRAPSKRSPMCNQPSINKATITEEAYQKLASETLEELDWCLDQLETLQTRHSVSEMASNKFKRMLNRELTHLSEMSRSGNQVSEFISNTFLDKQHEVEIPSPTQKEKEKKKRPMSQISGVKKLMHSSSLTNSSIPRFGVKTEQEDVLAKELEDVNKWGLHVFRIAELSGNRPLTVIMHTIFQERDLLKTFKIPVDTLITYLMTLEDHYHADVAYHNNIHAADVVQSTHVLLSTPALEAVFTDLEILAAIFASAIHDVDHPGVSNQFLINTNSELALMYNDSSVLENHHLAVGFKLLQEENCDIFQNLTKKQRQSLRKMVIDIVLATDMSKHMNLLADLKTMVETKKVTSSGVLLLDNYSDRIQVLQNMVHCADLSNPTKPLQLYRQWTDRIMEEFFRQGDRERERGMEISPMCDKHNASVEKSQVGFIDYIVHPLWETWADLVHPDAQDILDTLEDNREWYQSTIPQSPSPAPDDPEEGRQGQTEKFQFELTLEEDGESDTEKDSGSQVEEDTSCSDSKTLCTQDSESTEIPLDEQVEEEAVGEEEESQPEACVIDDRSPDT
Chain of PDE7A (Q13946 whole entry, the tested form may be a part): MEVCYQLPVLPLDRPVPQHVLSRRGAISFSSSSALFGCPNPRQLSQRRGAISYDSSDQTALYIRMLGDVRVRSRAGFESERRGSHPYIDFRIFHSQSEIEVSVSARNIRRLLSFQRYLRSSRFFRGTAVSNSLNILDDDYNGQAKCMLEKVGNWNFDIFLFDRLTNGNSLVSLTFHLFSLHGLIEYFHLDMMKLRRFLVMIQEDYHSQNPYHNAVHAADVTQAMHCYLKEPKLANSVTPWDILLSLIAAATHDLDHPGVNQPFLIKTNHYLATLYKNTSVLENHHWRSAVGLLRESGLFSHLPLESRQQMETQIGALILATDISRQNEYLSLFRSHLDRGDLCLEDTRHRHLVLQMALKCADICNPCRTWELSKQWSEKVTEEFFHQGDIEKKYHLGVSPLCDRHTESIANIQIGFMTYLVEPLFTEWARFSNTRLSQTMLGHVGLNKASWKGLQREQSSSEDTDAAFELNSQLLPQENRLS

SMILES: CCN(CC)c1ncnc2sc3c(c12)CCCC3 [BC44]
Composite Z score, PDE4A5 [1]: 63.222 | PDE inhibitor profile, in words [2]: very good PDE4 and PDE7 inhibitor, with low PDE4D inhibition | Composite Z score, PDE7A [3]: 177.31 | EC50 [4]: 3.3 µM

SMILES: CCC1CCc2c(sc3ncnc(N4CCOCC4)c23)C1 (stereo not drawn) [BC33]
Composite Z score, PDE4A5 [1]: 36.026 | PDE inhibitor profile, in words [2]: PDE4 inhibitor. It also shows some activity on PDE4D3 (but not 4D2) | EC50 [3]: > 200 µM | Composite Z score, PDE7A [3]: −0.794 | EC50 [4]: 33 µM

SMILES: CC(C)Cn1c2ccc(Br)cc2c2nc3ccccc3nc21 [2015, L04]
1 Assay (20 uM) 4A5 ([1]; PDE 4A5): 57.60 ND ND ND ND | PDE inhibitor profile (Table 17) [2]: 2015, L04 (1) | 1 Assay (20 uM) 7A ([3]; PDE 7A): −0.79 ND ND ND ND

SMILES: COC(=O)C1=C(C)N(C2CCCCC2)C(=O)/C1=C\c1cccs1 [Compound 22]
2 Assay (2 uM), 4A5 [1]: 13.66 | 1 Assay (20 uM) 4A5 [1]: −0.06 | inhibitor class, Table 15 [2]: 22 (4) | 2 Assay (2 uM), 7A [3]: 57.22 | 1 Assay (20 uM) 7A [3]: 132.82 | 2 Assay (2 uM), 4D3 [4]: 42.32

SMILES: COc1ccc2c(c1)[C@@]1(C)CCC[C@](C)(CO)C1CC2 (stereo partly drawn) [Compound 2067M03]
2 Assay (2 uM), 4A5 ([1]; PDE 4A5): 8.43 | 1 Assay (20 uM) 4A5 ([1]; PDE 4A5): 16.94 | 2 Assay (2 uM), 7A ([3]; PDE 7A): 8.65 | 1 Assay (20 uM) 7A ([3]; PDE 7A): 104.31 | 2 Assay (2 uM), 4D3 ([4]; PDE 4D3): ND 1.24 ND ND ND

SMILES: c1ccc(CCn2c3ccccc3c3nc4ccccc4nc32)cc1 [2019, G03]
1 Assay (20 uM) 4A5 ([1]; PDE 4A5): 49.61 ND ND ND ND | PDE inhibitor profile (Table 17) [2]: 2019, G03 (4) | 1 Assay (20 uM) 7A ([3]; PDE 7A): 4.47 ND ND ND ND

SMILES: C=CCn1c2ccc(Br)cc2c2nc3ccccc3nc21 [2017, C18]
1 Assay (20 uM) 4A5 ([1]; PDE 4A5): 69.70 ND ND ND ND | PDE inhibitor profile (Table 17) [2]: 2017, C18 (4) | 1 Assay (20 uM) 7A ([3]; PDE 7A): −1.58 ND ND ND ND

SMILES: N#Cc1sc2sc(C#N)c(-c3ccco3)c2c1N [Compound 30]
2 Assay (2 uM), 4A5 [1]: 2.79 | 1 Assay (20 uM) 4A5 [1]: 2.14 | inhibitor class, Table 16 [2]: 30 KM03472 (2)

SMILES: COC(=O)C1/C(=C/c2cccc(OC)c2O)C(=O)N(c2ccccc2F)C1C (stereo not drawn) [2008, C21]
1 Assay (20 uM) 4A5 [1]: 1.80 ND ND ND ND | inhibitor class, Table 15 [2]: 2008, C21 (2) | 1 Assay (20 uM) 7A [3]: −0.08 ND ND ND ND

SMILES: Cc1ccc2c(c1)CCC1CC(=O)CC[C@]21C (stereo partly drawn) [Compound 2158J12]
2 Assay (2 uM), 4A5 ([1]; PDE 4A5): 7.00 | 1 Assay (20 uM) 4A5 ([1]; PDE 4A5): 113.27 | 2 Assay (2 uM), 7A ([3]; PDE 7A): 29.01 | 1 Assay (20 uM) 7A ([3]; PDE 7A): 74.45 | 2 Assay (2 uM), 4D3 ([4]; PDE 4D3): 40.17 | 1 Assay (20 uM) 4D3 ([4]; 20 uM, PDE 4D3): 14.84

SMILES: COC(=O)C1=C(C)N(c2ccc(C(C)C)cc2)C(=O)/C1=C\c1ccco1 [2008, 019]
1 Assay (20 uM) 4A5 [1]: 1.73 ND ND ND ND | inhibitor class, Table 15 [2]: 2008, 019 (1) | 1 Assay (20 uM) 7A [3]: 2.78 ND ND ND ND

Further lines, with some results ahead:

1 Assay (20 uM) 4A5 ([1]; PDE 4A5): 71.82 ND ND ND ND | 1 Assay (20 uM) 7A ([3]; PDE 7A): −0.84 ND ND ND ND
SMILES: CCCCn1c2ccccc2c2nc3ccccc3nc21 [2013, I20]
PDE inhibitor profile (Table 17) [2]: 2013, I20 (1)

1 Assay (20 uM) 4A5 [1]: 0.06 ND ND ND ND | 1 Assay (20 uM) 7A [3]: 2.43 ND ND ND ND
SMILES: COC(=O)C1=C(C)N(c2ccccc2)/C(=C/c2cccs2)C1=O [2008, K19]
inhibitor class, Table 15 [2]: 2008, K19 (1)

1 Assay (20 uM) 4A5 ([1]; PDE 4A5): 84.08 | 1 Assay (20 uM) 7A ([3]; PDE 7A): 0.31
SMILES: Cc1ccc2c(c1)c1nc3ccccc3nc1n2C(C)C [Compound 41]
PDE inhibitor profile (Table 17) [2]: 41 (1)

1 Assay (20 uM) 4A5 ([1]; PDE 4A5): 66.58 ND ND ND ND | 1 Assay (20 uM) 7A ([3]; PDE 7A): 0.63 ND ND ND ND
SMILES: C=Cn1c2ccccc2c2nc3ccccc3nc21 [2033, H06]
PDE inhibitor profile (Table 17) [2]: 2033, H06 (4)

2 Assay (2 uM), 4A5 [1]: 12.63 | 1 Assay (20 uM) 4A5 [1]: 65.67 | 2 Assay (2 uM), 7A [3]: 5.07 | 1 Assay (20 uM) 7A [3]: 2.34 | 2 Assay (2 uM), 4D3 [4]: 0.00
SMILES: COC(=O)C1=C(C)N(c2ccccc2Cl)C(=O)/C1=C\c1cccs1 [Compound 27]
inhibitor class, Table 15 [2]: 27 (3)

EC50 [3]: > 200 µM | Composite Z score, PDE7A [3]: 55.035 | EC50 [4]: > 200 µM
SMILES: Cc1sc2ncnc(Nc3ccccc3)c2c1C [BC64]
PDE inhibitor profile, in words [2]: moderate PDE7 inhibitor

1 Assay (20 uM) 4A5 ([1]; PDE 4A5): 51.82 ND ND ND ND | 1 Assay (20 uM) 7A ([3]; PDE 7A): 1.07 ND ND ND ND
SMILES: CCc1ccc2c(c1)c1nc3ccccc3nc1n2CC [2015, P06]
PDE inhibitor profile (Table 17) [2]: 2015, P06 (4)

Composite Z score, PDE4A5 [1]: 154.72 | Composite Z score, PDE7A [3]: 24.881
SMILES: Cc1c(C(=O)Nc2ccc(F)cc2F)sc2ncnc(N3CCC(C)CC3)c12 [BC58]
PDE inhibitor profile, in words [2]: effective PDE4A/4B inhibitor that exhibits limited/essentially no inhibition of PDE4D; also recorded: PDE4A/4B-specific inhibitor
